Data on 19 compounds can be found in US10464911B2, “1,3,4-oxadiazole sulfamide derivative compounds as histone deacetylase 6 inhibitor, and the pharmaceutical composition comprising the same” (Chong Kun Dang Pharmaceutical Corp., priority 2015, dated 2019).

The test addresses human recombinant HDAC6 (Homo sapiens (Human), UniProt Q9UBN7). Briefly: HDAC6 enzyme activity inhibition assay (HDAC Fluorimetric Drug Discovery Kit). Type of test: biochemical. As to conditions: for HDAC6 selectivity (fold): HDAC6 versus HDAC1; for IC50: human recombinant HDAC6, same protocol as HDAC1 test. Here is the method: In order to examine the HDAC6 selectivity of the compounds of formula I of the present invention by HDAC1 and HDAC6 enzymatic activity inhibition assays, an experiment was performed using a conventional substance as a control.
HDAC enzyme activity was measured using a HDAC Fluorimetric Drug Discovery Kit (BML-AK511, 516, Enzo Life Science). For the HDAC1 enzyme activity test, human recombinant HDAC1 (BML-SE456) was used as an enzyme source, and Fluor de Lys®-“SIRT1 (BNL-KI177) was used as a substrate. A 5-fold dilution of the compound was seeded into a 96-well plate, and then 0.3 μg of the enzyme and 10 μM of the substrate were added to each well of the plate and allowed to react at 30 for 60 minutes. Then, Fluor de Lys®-Developer II (BML-KI176) was added thereto and allowed to react for 30 minutes, after which the fluorescence value (Ex 360, Em 460) was measured using a multi-plate reader (Flexstation 3, Molecular Device). The HDAC6 enzyme was tested using human recombinant HDAC6 (382180) (Calbiochem) according to the same protocol as the HDAC1 enzyme activity test method. Based on the resulting values, each IC50 value was calculated using GraphPad Prism4.0 program.

Broadly, the IC50 is the concentration needed to halve the response being measured.

human recombinant HDAC6, sequence (Q9UBN7 whole entry): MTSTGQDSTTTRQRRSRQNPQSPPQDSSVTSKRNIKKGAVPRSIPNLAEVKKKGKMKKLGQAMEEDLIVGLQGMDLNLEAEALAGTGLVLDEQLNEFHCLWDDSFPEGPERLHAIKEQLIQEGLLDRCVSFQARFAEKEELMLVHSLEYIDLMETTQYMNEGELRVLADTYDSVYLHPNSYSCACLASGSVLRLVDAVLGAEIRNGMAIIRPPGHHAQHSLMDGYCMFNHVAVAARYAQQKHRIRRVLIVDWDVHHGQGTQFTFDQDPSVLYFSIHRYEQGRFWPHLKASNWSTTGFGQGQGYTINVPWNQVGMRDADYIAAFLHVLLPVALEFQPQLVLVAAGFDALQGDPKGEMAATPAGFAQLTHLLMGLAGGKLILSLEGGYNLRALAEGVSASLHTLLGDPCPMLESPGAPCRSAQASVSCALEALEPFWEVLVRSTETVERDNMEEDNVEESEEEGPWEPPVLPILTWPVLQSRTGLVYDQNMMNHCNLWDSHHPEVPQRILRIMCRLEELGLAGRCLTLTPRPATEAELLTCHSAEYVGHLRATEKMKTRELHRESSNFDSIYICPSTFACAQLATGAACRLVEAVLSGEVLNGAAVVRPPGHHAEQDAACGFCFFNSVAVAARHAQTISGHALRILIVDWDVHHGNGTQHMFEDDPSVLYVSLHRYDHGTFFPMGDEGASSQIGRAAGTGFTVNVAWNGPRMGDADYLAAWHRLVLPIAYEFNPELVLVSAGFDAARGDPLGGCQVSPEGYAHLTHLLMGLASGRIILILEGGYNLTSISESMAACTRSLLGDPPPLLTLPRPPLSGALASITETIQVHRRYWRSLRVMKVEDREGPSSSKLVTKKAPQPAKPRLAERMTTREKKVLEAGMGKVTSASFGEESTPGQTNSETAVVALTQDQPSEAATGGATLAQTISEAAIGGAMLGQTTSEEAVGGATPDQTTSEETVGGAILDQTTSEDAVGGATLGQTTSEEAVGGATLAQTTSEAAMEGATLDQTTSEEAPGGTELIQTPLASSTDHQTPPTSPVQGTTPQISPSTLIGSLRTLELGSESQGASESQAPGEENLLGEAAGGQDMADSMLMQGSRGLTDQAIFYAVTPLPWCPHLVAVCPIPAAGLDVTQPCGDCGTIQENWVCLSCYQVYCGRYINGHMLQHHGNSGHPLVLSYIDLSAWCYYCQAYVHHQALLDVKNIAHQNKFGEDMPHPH

Consider `O=S(=O)(N1CCOCC1)N(Cc1ccc(-c2nnc(C(F)(F)F)o2)cc1)c1ccc(F)cc1` [Compound 11198, N-(4-fluorophenyl)-N-(4-(5-(trifluoromethyl)-1,3,4-oxadiazol-2-yl)benzyl)morpholine-4-sulfonamide], for which the “HDAC6 selectivity (fold)” value amounted to 738 fold and the IC50 is 136 nM.

Regarding `O=S(=O)(N1CCOCC1)N(Cc1ccc(-c2nnc(C(F)F)o2)cc1)c1ccc(F)cc1` [Compound 11199, N-(4-(5-(difluoromethyl)-1,3,4-oxadiazol-2-yl)benzyl)-N-(4-fluorophenyl)morpholine-4-sulfonamide], the “HDAC6 selectivity (fold)” value was found to be 1911 fold and the IC50 came to 52 nM.

For the compound `CC(=O)N1CCN(S(=O)(=O)N(Cc2ccc(-c3nnc(C(F)(F)F)o3)cc2F)c2ccccc2)CC1` [Compound 11294, 4-acetyl-N-(2-fluoro-4-(5-(trifluoromethyl)-1,3,4-oxadiazol-2-yl)benzyl)-N-phenylpiperazine-1-sulfonamide], the “HDAC6 selectivity (fold)” value was found to be 1411 fold and the IC50 was found to be 71 nM.

For `CCC(=O)N1CCN(S(=O)(=O)N(Cc2ccc(-c3nnc(C(F)(F)F)o3)cc2F)c2ccccc2)CC1` [Compound 11295, N-(2-fluoro-4-(5-(trifluoromethyl)-1,3,4-oxadiazol-2-yl)benzyl)-N-phenyl-4-propionylpiperazine-1-sulfonamide], the “HDAC6 selectivity (fold)” value was determined as 751 fold and the IC50 came out at 133 nM.

As for `CC(C)C(=O)N1CCN(S(=O)(=O)N(Cc2ccc(-c3nnc(C(F)(F)F)o3)cc2F)c2ccccc2)CC1` [Compound 11296, N-(2-fluoro-4-(5-(trifluoromethyl)-1,3,4-oxadiazol-2-yl)benzyl)-4-isobutyryl-N-phenylpiperazine-1-sulfonamide], the “HDAC6 selectivity (fold)” value was determined as 636 fold and the 50% inhibitory concentration (IC50) is 157 nM.

In the case of `CS(=O)(=O)N1CCN(S(=O)(=O)N(Cc2ccc(-c3nnc(C(F)(F)F)o3)cc2F)c2ccccc2)CC1` [Compound 11297, N-(2-fluoro-4-(5-(trifluoromethyl)-1,3,4-oxadiazol-2-yl)benzyl)-4-(methylsulfonyl)-N-phenylpiperazine-1-sulfonamide], the “HDAC6 selectivity (fold)” value is given as 805 fold and the IC50 worked out at 124 nM.

For the compound `CN1CCN(S(=O)(=O)N(Cc2ccc(-c3nnc(C(F)(F)F)o3)cc2F)c2ccccc2)CC1` [Compound 11298, N-(2-fluoro-4-(5-(trifluoromethyl)-1,3,4-oxadiazol-2-yl)benzyl)-4-methyl-N-phenylpiperazine-1-sulfonamide], the “HDAC6 selectivity (fold)” value came out at 1333 fold and the IC50 was found to be 75 nM.

Regarding `CCN1CCN(S(=O)(=O)N(Cc2ccc(-c3nnc(C(F)(F)F)o3)cc2F)c2ccccc2)CC1` [Compound 11299, 4-ethyl-N-(2-fluoro-4-(5-(trifluoromethyl)-1,3,4-oxadiazol-2-yl)benzyl)-N-phenylpiperazine-1-sulfonamide], the “HDAC6 selectivity (fold)” value came out at 1169 fold and the IC50 was found to be 86 nM.

Turning to `CC(C)N1CCN(S(=O)(=O)N(Cc2ccc(-c3nnc(C(F)(F)F)o3)cc2F)c2ccccc2)CC1` [Compound 11300, N-(2-fluoro-4-(5-(trifluoromethyl)-1,3,4-oxadiazol-2-yl)benzyl)-4-isopropyl-N-phenylpiperazine-1-sulfonamide], the “HDAC6 selectivity (fold)” value amounted to 861 fold and the IC50 was 116 nM.

With `Cl.O=S(=O)(N1CCNCC1)N(Cc1ccc(-c2nnc(C(F)F)o2)cc1F)c1ccccc1` [Compound 11301, N-(4-(5-(difluoromethyl)-1,3,4-oxadiazol-2-yl)-2-fluorobenzyl)-N-phenylpiperazine-1-sulfonamide Hydrochloride], the “HDAC6 selectivity (fold)” value was 3622 fold and the IC50 was 28 nM.

Take `CC(=O)N1CCN(S(=O)(=O)N(Cc2ccc(-c3nnc(C(F)F)o3)cc2F)c2ccccc2)CC1` [Compound 11302, 4-acetyl-N-(4-(5-(difluoromethyl)-1,3,4-oxadiazol-2-yl)-2-fluorobenzyl)-N-phenylpiperazine-1-sulfonamide]: the “HDAC6 selectivity (fold)” value is listed as 3174 fold and the IC50 is 32 nM.

As for `CCC(=O)N1CCN(S(=O)(=O)N(Cc2ccc(-c3nnc(C(F)F)o3)cc2F)c2ccccc2)CC1` [Compound 11303, N-(4-(5-(difluoromethyl)-1,3,4-oxadiazol-2-yl)-2-fluorobenzyl)-N-phenyl-4-propionylpiperazine-1-sulfonamide], the “HDAC6 selectivity (fold)” value is reported as 3187 fold and the IC50 came out at 31 nM.

Take `CC(C)C(=O)N1CCN(S(=O)(=O)N(Cc2ccc(-c3nnc(C(F)F)o3)cc2F)c2ccccc2)CC1` [Compound 11304, N-(4-(5-(difluoromethyl)-1,3,4-oxadiazol-2-yl)-2-fluorobenzyl)-4-isobutyryl-N-phenylpiperazine-1-sulfonamide]: the “HDAC6 selectivity (fold)” value is recorded as 1912 fold and the IC50 is 52 nM.

With `CS(=O)(=O)N1CCN(S(=O)(=O)N(Cc2ccc(-c3nnc(C(F)F)o3)cc2F)c2ccccc2)CC1` [Compound 11305, N-(4-(5-(difluoromethyl)-1,3,4-oxadiazol-2-yl)-2-fluorobenzyl)-4-(methylsulfonyl)-N-phenylpiperazine-1-sulfonamide], the “HDAC6 selectivity (fold)” value is listed as 2620 fold and the IC50 was found to be 38 nM.

In the case of `CN1CCN(S(=O)(=O)N(Cc2ccc(-c3nnc(C(F)F)o3)cc2F)c2ccccc2)CC1` [Compound 11306, N-(4-(5-(difluoromethyl)-1,3,4-oxadiazol-2-yl)-2-fluorobenzyl)-4-methyl-N-phenylpiperazine-1-sulfonamide], the “HDAC6 selectivity (fold)” value was determined as 4363 fold and the IC50 was found to be 23 nM.

As for `CCN1CCN(S(=O)(=O)N(Cc2ccc(-c3nnc(C(F)F)o3)cc2F)c2ccccc2)CC1` [Compound 11307, N-(4-(5-(difluoromethyl)-1,3,4-oxadiazol-2-yl)-2-fluorobenzyl)-4-ethyl-N-phenylpiperazine-1-sulfonamide], the “HDAC6 selectivity (fold)” value was determined as 2366 fold and the IC50 worked out at 42 nM.

Turning to `CC(C)N1CCN(S(=O)(=O)N(Cc2ccc(-c3nnc(C(F)F)o3)cc2F)c2ccccc2)CC1` [Compound 11308, N-(4-(5-(difluoromethyl)-1,3,4-oxadiazol-2-yl)-2-fluorobenzyl)-4-isopropyl-N-phenylpiperazine-1-sulfonamide], the “HDAC6 selectivity (fold)” value turned out to be 2168 fold and the IC50 is 46 nM.

On to `CS(=O)(=O)N1CCN(S(=O)(=O)N(Cc2ccc(-c3nnc(C(F)(F)F)o3)cc2F)c2cccc(F)c2)CC1` [Compound 11310, N-(2-fluoro-4-(5-(trifluoromethyl)-1,3,4-oxadiazol-2-yl)benzyl)-N-(3-fluorophenyl)-4-(methylsulfonyl)piperazine-1-sulfonamide], for which the “HDAC6 selectivity (fold)” value is on record as 1311 fold and the IC50 came out at 76 nM.

Consider `CC(=O)N1CCN(S(=O)(=O)N(Cc2ccc(-c3nnc(C(F)(F)F)o3)cc2F)c2cccc(F)c2)CC1` [Compound 11311, 4-acetyl-N-(2-fluoro-4-(5-(trifluoromethyl)-1,3,4-oxadiazol-2-yl)benzyl)-N-(3-fluorophenyl)piperazine-1-sulfonamide], for which the “HDAC6 selectivity (fold)” value was found to be 1188 fold and the IC50 was found to be 84 nM.
